Results published in PMC8191315 (European Journal of Medicinal Chemistry, 2021).

Target: SARS-CoV-2 RdRp (Severe acute respiratory syndrome coronavirus 2, UniProt P0DTD1)
Assay type: cell-based
Details: 5 μM and 10 μM, HEK293T cells, 24 h, real-time qRT-PCR

| SMILES | levels of viral plus- and minus-strand Gluc RNA |
| --- | --- |
| O=C(CSc1c[nH]c2ccccc12)N(Cc1ccccc1)Cc1ccccc1 [6b2, N,N-dibenzyl-2-((1H-indol-3-yl)thio)acetamide] | decreased the levels of viral plus- and minus-strand Gluc RNA in a dose-dependent manner |
| CN(Cc1ccccc1)C(=O)CSc1c[nH]c2ccccc12 [6b5, 2-((1H-indol-3-yl)thio)-N-benzyl-N-methylacetamide] | decreased the levels of viral plus- and minus-strand Gluc RNA in a dose-dependent manner |
| COc1ccccc1CNC(=O)CSc1c[nH]c2c(-c3ccccc3)cccc12 [6c9, N-(2-methoxybenzyl)-2-((7-phenyl-1H-indol-3-yl)thio)acetamide] | decreased the levels of viral plus- and minus-strand Gluc RNA in a dose-dependent manner |
| O=C(CSc1c[nH]c2cccc(Br)c12)N(Cc1ccccc1)Cc1ccccc1 [6d2, N,N-dibenzyl-2-((4-bromo-1H-indol-3-yl)thio)acetamide] | decreased the levels of viral plus- and minus-strand Gluc RNA in a dose-dependent manner |
| CCOc1ccccc1CN(OC)C(=O)CSc1c[nH]c2cccc(Br)c12 [6d5, N-(2-ethoxybenzyl)-2-((4-bromo-1H-indol-3-yl)thio)-N-methoxyacetamide] | decreased the levels of viral plus- and minus-strand Gluc RNA in a dose-dependent manner |
